In assay [1] the target is 5-hydroxytryptamine receptor 2A (Homo sapiens, UniProt P28223).
Assay [2] has as its target 5-hydroxytryptamine receptor 6 (Homo sapiens, UniProt P50406).
In assay [3] the target is 5-hydroxytryptamine receptor 2B (Homo sapiens, UniProt P41595).
The target in assay [4] is 5-hydroxytryptamine receptor 7 (Homo sapiens, UniProt P34969).
The target in assay [5] is 5-hydroxytryptamine receptor 1E (Homo sapiens, UniProt P28566).
The target of assay [6] is 5-hydroxytryptamine receptor 4 (Homo sapiens, UniProt Q13639).
5-hydroxytryptamine receptor 4, sequence (Q13639 whole entry): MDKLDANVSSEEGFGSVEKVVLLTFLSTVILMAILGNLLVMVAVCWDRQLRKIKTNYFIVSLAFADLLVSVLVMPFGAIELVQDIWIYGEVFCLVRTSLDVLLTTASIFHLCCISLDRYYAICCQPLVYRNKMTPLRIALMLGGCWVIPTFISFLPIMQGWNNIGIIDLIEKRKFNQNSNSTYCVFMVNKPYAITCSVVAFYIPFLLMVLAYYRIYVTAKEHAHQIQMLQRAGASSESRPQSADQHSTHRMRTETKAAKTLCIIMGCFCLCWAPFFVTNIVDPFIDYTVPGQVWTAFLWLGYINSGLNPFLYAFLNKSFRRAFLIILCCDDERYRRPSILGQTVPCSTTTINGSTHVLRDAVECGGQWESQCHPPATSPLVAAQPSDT
Assay [7] addresses T1, 5-hydroxytryptamine receptor 1F (Homo sapiens, UniProt P30939).
T1 sequence (P30939 whole entry): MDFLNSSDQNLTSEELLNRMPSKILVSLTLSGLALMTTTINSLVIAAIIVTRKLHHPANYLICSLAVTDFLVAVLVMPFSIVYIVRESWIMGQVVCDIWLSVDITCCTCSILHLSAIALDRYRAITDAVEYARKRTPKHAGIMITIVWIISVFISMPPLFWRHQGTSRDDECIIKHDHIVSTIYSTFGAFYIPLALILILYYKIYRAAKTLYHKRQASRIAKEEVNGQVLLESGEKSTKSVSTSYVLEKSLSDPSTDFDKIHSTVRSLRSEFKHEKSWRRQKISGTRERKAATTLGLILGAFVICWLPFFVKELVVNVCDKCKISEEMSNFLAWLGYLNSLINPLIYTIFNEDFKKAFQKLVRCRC

The target of assay [8] is 5-hydroxytryptamine receptor 1B (Homo sapiens, UniProt P28222).
5-hydroxytryptamine receptor 1B, sequence (P28222 whole entry): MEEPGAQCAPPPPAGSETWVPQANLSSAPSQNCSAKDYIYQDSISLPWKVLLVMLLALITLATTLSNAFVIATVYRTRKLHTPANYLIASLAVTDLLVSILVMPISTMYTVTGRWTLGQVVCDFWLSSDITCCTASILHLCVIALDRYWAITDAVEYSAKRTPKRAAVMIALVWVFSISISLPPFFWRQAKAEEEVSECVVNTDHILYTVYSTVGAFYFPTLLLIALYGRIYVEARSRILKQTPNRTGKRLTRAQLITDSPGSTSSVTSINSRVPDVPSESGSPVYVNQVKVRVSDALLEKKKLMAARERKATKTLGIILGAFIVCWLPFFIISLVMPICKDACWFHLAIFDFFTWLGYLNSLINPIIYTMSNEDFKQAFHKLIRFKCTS

5-hydroxytryptamine receptor 1E, sequence (P28566 whole entry): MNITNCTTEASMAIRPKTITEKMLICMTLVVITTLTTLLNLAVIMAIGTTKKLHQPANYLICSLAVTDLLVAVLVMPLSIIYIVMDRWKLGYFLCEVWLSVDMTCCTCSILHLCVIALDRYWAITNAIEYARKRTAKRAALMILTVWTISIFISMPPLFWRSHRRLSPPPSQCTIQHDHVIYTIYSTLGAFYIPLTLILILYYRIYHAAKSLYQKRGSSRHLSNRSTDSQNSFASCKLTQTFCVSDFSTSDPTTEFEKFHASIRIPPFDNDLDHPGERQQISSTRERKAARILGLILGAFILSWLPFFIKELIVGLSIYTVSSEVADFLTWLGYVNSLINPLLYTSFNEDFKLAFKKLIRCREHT
5-hydroxytryptamine receptor 6, sequence (P50406 whole entry): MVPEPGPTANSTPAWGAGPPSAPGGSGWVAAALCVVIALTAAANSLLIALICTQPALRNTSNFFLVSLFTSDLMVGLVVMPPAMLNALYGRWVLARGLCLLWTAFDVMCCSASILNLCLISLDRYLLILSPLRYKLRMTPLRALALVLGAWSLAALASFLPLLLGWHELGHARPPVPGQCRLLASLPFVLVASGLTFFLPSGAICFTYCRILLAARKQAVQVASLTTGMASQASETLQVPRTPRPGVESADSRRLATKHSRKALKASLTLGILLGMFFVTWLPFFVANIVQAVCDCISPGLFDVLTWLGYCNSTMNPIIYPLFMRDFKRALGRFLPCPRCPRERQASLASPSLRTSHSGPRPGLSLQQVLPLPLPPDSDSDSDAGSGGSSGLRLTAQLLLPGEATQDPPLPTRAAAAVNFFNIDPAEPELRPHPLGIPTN
5-hydroxytryptamine receptor 2A, sequence (P28223 whole entry): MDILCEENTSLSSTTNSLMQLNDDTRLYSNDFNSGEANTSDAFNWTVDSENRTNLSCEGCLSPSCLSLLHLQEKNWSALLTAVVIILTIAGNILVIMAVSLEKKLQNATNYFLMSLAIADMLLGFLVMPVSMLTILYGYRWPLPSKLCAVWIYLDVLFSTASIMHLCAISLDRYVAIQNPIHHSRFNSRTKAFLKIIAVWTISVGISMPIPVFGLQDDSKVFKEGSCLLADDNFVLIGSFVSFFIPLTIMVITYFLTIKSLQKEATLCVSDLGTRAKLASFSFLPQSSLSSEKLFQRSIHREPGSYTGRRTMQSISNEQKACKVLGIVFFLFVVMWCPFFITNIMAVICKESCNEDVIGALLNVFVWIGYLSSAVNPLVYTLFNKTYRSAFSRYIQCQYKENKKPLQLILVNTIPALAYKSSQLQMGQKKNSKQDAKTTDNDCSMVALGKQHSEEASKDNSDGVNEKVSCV
5-hydroxytryptamine receptor 2B, sequence (P41595 whole entry): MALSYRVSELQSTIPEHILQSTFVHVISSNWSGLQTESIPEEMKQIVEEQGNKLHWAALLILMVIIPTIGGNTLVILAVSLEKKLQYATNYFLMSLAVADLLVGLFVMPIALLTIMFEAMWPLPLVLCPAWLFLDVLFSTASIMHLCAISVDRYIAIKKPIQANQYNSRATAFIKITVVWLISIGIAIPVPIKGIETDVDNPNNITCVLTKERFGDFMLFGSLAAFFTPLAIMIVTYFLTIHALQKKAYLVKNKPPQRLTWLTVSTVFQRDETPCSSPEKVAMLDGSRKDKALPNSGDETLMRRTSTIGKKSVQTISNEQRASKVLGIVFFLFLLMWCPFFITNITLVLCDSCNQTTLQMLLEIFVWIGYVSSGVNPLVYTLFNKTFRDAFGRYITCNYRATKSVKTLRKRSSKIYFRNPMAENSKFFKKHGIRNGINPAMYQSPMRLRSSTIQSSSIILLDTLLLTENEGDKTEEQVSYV
5-hydroxytryptamine receptor 7, sequence (P34969 whole entry): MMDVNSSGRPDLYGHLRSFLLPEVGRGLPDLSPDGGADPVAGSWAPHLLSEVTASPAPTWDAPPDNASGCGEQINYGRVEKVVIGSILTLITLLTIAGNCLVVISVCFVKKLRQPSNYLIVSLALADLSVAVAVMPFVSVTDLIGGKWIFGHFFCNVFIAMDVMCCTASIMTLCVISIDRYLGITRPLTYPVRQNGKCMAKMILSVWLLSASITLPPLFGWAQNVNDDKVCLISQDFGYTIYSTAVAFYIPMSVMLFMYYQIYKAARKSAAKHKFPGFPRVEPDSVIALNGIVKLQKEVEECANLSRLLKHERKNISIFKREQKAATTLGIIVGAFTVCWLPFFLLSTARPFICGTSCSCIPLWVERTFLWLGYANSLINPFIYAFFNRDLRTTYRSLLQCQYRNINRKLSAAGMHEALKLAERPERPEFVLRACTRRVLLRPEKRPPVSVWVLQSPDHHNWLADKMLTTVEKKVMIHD

`Cc1nc(-c2ccc(-c3ccc(C(=O)N4CCc5cc6c(cc54)C4(CCN(C)CC4)CO6)cc3)c(C)c2)no1` [4-[2-methyl-4-(5-methyl-1,2,4-oxadiazol-3-yl)phenyl]phenyl-1'-methylspiro[3,5,6,7-tetrahydro-2H-furo[2,3-f]indole-3,4'-(hexahydropyridine)]-5-ylmethanone]: the Ki (as a rule, the dissociation constant of the complex between target and ligand, obtained from inhibition or displacement) in assay [1] is 1200 nM; in assay [2], 2140 nM; in assay [3] it was 3160 nM; in assay [4], 1000 nM; in assay [5], more than 10000 nM; in assay [6] it was 2040 nM. The inhibition constant (Ki) in assay [7] was more than 10000 nM.
In assay [8], `COc1ccc(NC(=O)c2ccc(-c3ccc(-c4noc(C)n4)cc3C)cc2)cc1N1CCN(C)CC1` [SMR001230745] yielded a Ki of 0.93 nM.

Values taken from BindingDB's records for doi:10.1038/sj.bjp.0702059 (Smithkline Beecham Pharmaceuticals, 1998).
